Several values for one entry are separate records, joined by “and”; a condition that tells them apart may be missing. Identical values can stand only once.
Test system: Plasmodium falciparum
Experiment: Calibr Malaria Delayed Death Assay SOP
Assay type: functional, organism-based
Details: for IC50: Plasmodium falciparum

SMILES | pIC50 | IC50
CCN1CCC2(CC1)CC(NCc1cccs1)c1ccccc1O2.O=C(O)C(F)(F)F.O=C(O)C(F)(F)F (stereo not given) | 6.431 | 287 nM
Cc1cnccc1CN1CC[C@@](C)(O)[C@H](Oc2cccc(F)c2)C1 | 5.517 | 2330 nM
Cc1cc(-n2cccn2)ccc1CN1CCOCC(CN(C)C)C1 (stereo not given) | 6.139 | 673 nM
Cc1ccc(CN(CCN(C)C)Cc2c(C)nc3sccn23)o1.O=C(O)CC(O)(CC(=O)O)C(=O)O | 6.093 | 506 nM
Cc1cc(C)n(C2CN(CC(O)c3cc(F)ccc3F)C2)n1 (stereo not given) | 6.757 | 223 nM
O=C(O)C(F)(F)F.O=C(O)C(F)(F)F.c1cncc(N2CCCC3(CCN(CCN4CCCC4)CC3)C2)c1 | 5.977 | 1020 nM
CN1CCN(S(=O)(=O)c2ccc(Cl)c(Cl)c2)c2cnccc21 | 6.238 | 557 nM
O=C(CC1CCCC1)NCCNCc1cccc2c1OCCO2 | 6.128 | 938 nM
CC(NCC1CCN(CCO)CC1)c1ccc(OC(F)(F)F)cc1 (stereo not given) | 6.465 | 343 nM
O=S(=O)(NC[C@H]1C[C@@H]2CCN1C[C@@H]2CN1CCCC1)c1ccc(Cl)cc1 | 5.945 | 1130 nM
CC(O)c1cccc(Nc2nc(NCCO)c3ccccc3n2)c1 (stereo not given) | 6.601 | 220 nM
CC(C)C(CNCc1cccc2c1OCO2)N1CCOCC1 (stereo not given) | 6.558 | 429 nM
CCC(NCc1ccccc1C)c1ccccc1OCC(=O)NC (stereo not given) | 6.158 | 731 nM
c1ccn2c(C3CCCN(c4ncnc5c4CCNC5)C3)nnc2c1 (stereo not given) | 6.629 | 213 nM
CN[C@@H](C)C(=O)N(Cc1cccc(C)c1)Cc1ccccc1OC | 6.428 | 316 nM
CN(C)CCn1nc(C2CCN(Cc3ccccc3)C2)c2cccnc21 (stereo not given) | 5.827 | 2240 nM
Br.CCOc1ccc(Br)cc1C1CCCN1 (stereo not given) | 6.082 | 534 nM
CN(C)CC1CSCCCN1S(=O)(=O)Cc1cccc(F)c1 (stereo not given) | 6.26 | 751 nM
Cc1ccc(CN(Cc2ccccn2)C2CC(C)(C)NC(C)(C)C2)s1.O=C(O)CC(O)(CC(=O)O)C(=O)O | 6.418 | 432 nM
CC(O)CN1CCC(CN(C)Cc2cc(F)cc3cccnc23)CC1 (stereo not given) | 5.98 | 1120 nM
CN(CCO)CC1COCCN1C(=O)C1(c2cccs2)CCCC1.O=CO (stereo not given) | 6.007 | 573 nM
Cc1cccc(C2(NCCCS(C)(=O)=O)CCCC2)c1 | 6.254 | 659 nM

SMILES | pIC50 | IC50
Cc1ccc(CN(Cc2cccnc2)C2CC(C)(C)NC(C)(C)C2)s1.O=C(O)CC(O)(CC(=O)O)C(=O)O | 6.05 | 727 nM
COc1ccc(N2CCCC3(C2)CN(c2nncs2)CCO3)cc1 (stereo not given) | 6.845 | 173 nM
CC1(C)CC(N(Cc2ccccc2)Cc2cccnc2)CC(C)(C)N1.O=C(O)CC(O)(CC(=O)O)C(=O)O | 5.927 | 602 nM
CC(C)(NCc1cccc(O)c1)c1ccc2c(c1)OCO2 | 5.935 | 894 nM
Cc1oc(-c2cc(F)cc(F)c2)nc1CN1C[C@@H](C)NC[C@@H]1C | 5.947 | 719 nM
OCCN1CCC(CNCc2ccccc2OC(F)(F)F)CC1 | 6.066 | 770 nM
CN1CC[C@H](N(Cc2ccccc2)CC2CC2)C[C@H](O)C1 | 5.964 | 1570 nM
CN(C)c1ccccc1CN1CCCCC1CNS(C)(=O)=O (stereo not given) | 6.043 | 1080 nM
O=C(c1ccc(F)c(Cl)c1)N1C[C@@H]2CC[C@H](C1)N(Cc1ccccc1)C2 | 5.941 | 758 nM
CCN(C)CC1CCN(S(=O)(=O)c2cc(C)c(F)cc2Cl)C1 (stereo not given) | 5.917 | 986 nM
CCN(CC)C(CNC(=O)c1c(C)noc1C(C)C)c1ccsc1 (stereo not given) | 6.097 | 1360 nM
C=Cc1cccc(CN2C[C@@H](CN(C)CC)[C@@H](CO)C2)c1 | 5.976 | 1050 nM
CN(Cc1ncc(C(C)(C)C)o1)CC1CCCN1c1cccnn1 (stereo not given) | 5.852 | 1620 nM
CNc1nc(C)cc(NC2CCCN(C3Cc4ccccc4C3)C2)n1 (stereo not given) | 6.114 | 968 nM
CN1CCC(N(Cc2ccco2)S(=O)(=O)c2ccc(Cl)cc2)CC1 | 6.409 | 560 nM
CN1CCCC1CNC(=O)CCCOc1cccc(Br)c1 (stereo not given) | 5.833 | 1170 nM
Oc1ccc(Cl)cc1CNCc1ccccc1C(F)(F)F | 6.047 | 1080 nM
Cn1cc(CN2CCCC(CCc3ccccc3C(F)(F)F)C2)cn1 (stereo not given) | 6.083 | 726 nM
CN1CC[C@H](N(Cc2ccccc2)Cc2ccccc2)C[C@H](O)C1 | 6.066 | 897 nM
c1ccc(C2CN(C3CC3)CC3(CCN(Cc4ncc[nH]4)CC3)C2)cc1 (stereo not given) | 6.233 and 5.873 | 
Fc1cnc(N2CCCC3(CCN(Cc4ccoc4)C3)C2)nc1.O=C(O)C(F)(F)F.O=C(O)C(F)(F)F (stereo not given) | 5.93 | 1210 nM
CN(CCc1cccc2ccccc12)Cc1nc(N)nc(N(C)C)n1 | 5.915 | 1240 nM

SMILES | pIC50 | IC50
Br.Cc1cc(C)c(N(CC(O)CNCc2ccccc2)S(C)(=O)=O)c(C)c1 (stereo not given) | 6.525 | 355 nM
Fc1ccccc1Sc1ccccc1CNC1=NCCN1.I | 5.863 | 1610 nM
Cc1cc(N2CCC(NC(C)Cc3ccsc3)CC2)nc(C)n1 (stereo not given) | 6.277 | 508 nM
CCN1CCCC(CNC(=O)C2(c3cc(C)cc(C)c3)CCC2)C1 (stereo not given) | 6.008 | 1510 nM
Cc1cc(F)ccc1CN1CCC(O)(CN2CCCCC2)C1 (stereo not given) | 6.047 | 1750 nM
OCCN1CCC(CNCc2ccc(Br)cc2)CC1 | 6.334 | 364 nM
CN1CCC(C2CCN(Cc3cccc(-n4cccn4)c3)CC2)C1 (stereo not given) | 6.139 | 656 nM
COc1cccc(CNCc2ccc(F)c(Cl)c2)c1O | 6.294 | 500 nM
Cc1cc(F)ccc1-c1ccccc1CC1CNCCNC1=O.Cl (stereo not given) | 6.113 | 1190 nM
CN1CCN(c2ccccc2NC(=O)NCCc2ccccc2)CC1 | 6.032 | 998 nM
Cc1cc(S(=O)(=O)NCC2CNCCOC2)c(C)cc1Cl (stereo not given) | 5.962 | 990 nM
COc1ccc(NC(=O)Nc2cnc(N3CCN(C)CC3)nc2)cc1Cl | 6.139 | 843 nM
Cn1cc(CN2CCCC(CCc3ccc(F)cc3)C2)cn1 (stereo not given) | 5.962 | 1060 nM
Fc1cnc(N2CCCC3(CCN(Cc4ccsc4)C3)C2)nc1.O=C(O)C(F)(F)F.O=C(O)C(F)(F)F (stereo not given) | 6.217 | 664 nM
Fc1ccc(Nc2ccc(C3CCN(Cc4ncc[nH]4)CC3)nc2)nc1 | 6.119 | 987 nM
Cc1ccc(CNC2CC3(CCN(CCO)CC3)c3ccccc32)s1.O=C(O)C(F)(F)F.O=C(O)C(F)(F)F (stereo not given) | 6.464 | 322 nM
Cc1cccc(NC(=O)c2cccc(OCc3nnnn3C)c2)n1 | 6.563 | 278 nM
CN1CCCCC1c1ncc2c(n1)CCN(Cc1ccc(F)cc1)C2 (stereo not given) | 5.899 | 1280 nM
O=C(Nc1ccc(OC2CCCC2)cc1)C1CCCN1c1nccs1 (stereo not given) | 7.074 | 79.3 nM
COc1ccc(Cn2nnnc2SCC2CCCN(C)C2)cc1 (stereo not given) | 5.834 | 1090 nM
CNC(=O)CCN(C)CC1(c2ccc(Br)cc2)CC1 | 6.438 | 340 nM
CN1CCn2c(-c3cccc(F)c3)cnc2C12CCN(CC1CC1)CC2.O=C(O)C(F)(F)F.O=C(O)C(F)(F)F.O=C(O)C(F)(F)F | 6.083 | 1100 nM

SMILES | pIC50 | IC50
Cc1nccn1CCCN1CCCC(c2ccccc2)C1 (stereo not given) | 6.639 | 234 nM
NCC(c1ccccc1)N1CCc2sccc2C1 (stereo not given) | 6.206 | 699 nM
CN1CCC(O)(CNCc2ccc(F)c(C(F)(F)F)c2)CC1 | 6.096 | 750 nM
Cc1cc(C)c(CNCC(O)c2ccc(F)c(F)c2)c(C)c1.Cl (stereo not given) | 6.932 | 125 nM
CC(C)[C@@H]1CN(C(=O)C2(c3ccccc3)CCN(C)CC2)C[C@H]1N(C)C | 6.113 | 710 nM
CCN(CC)Cc1ccccc1NC(=O)N(C)Cc1ccccc1O | 6.076 | 765 nM
CC(C)CNC(=O)C1(Cc2ccccc2-c2cccs2)CCNC1 (stereo not given) | 6.092 | 626 nM
Cc1ccc(CN2CC[C@H]3[C@H](CC(Cn4cccn4)N3C)C2)s1.O=C(O)C(F)(F)F.O=C(O)C(F)(F)F.O=C(O)C(F)(F)F (stereo not given in full) | 6.142 | 814 nM
Cc1cc(Br)cnc1NCCN1CCC(N(C)C)CC1 | 6.294 | 472 nM
COc1ccc(NC(=O)c2ccc(-n3ncc(C#N)c3N)cc2)cn1 | 5.946 | 1110 nM
CN(Cc1ccoc1)C(=O)C1(Oc2ccc(Cl)cc2)CCNCC1 | 6.021 | 977 nM
CCC(NCc1ccccc1Cl)c1ccccc1OCC(=O)NC (stereo not given) | 6.134 and 5.792 | 
Cc1cc(NC(=O)NC2CCN(C(C)C)CC2)c2ncccc2c1 | 5.97 | 796 nM
O=C(O)C(F)(F)F.O=C(O)C(F)(F)F.O=C(O)C(F)(F)F.c1cnn(C[C@@H]2C[C@@H]3CN(CC4CC4)CC[C@@H]3N2c2nccs2)c1 | 6.063 | 859 nM
COc1ccnc(CN2CCCC(CCc3ccccc3)C2)c1OC (stereo not given) | 5.985 | 1030 nM
Cc1ncc(CN(Cc2ccccn2)Cc2ccccc2Cl)n1C.O=C(O)CC(O)(CC(=O)O)C(=O)O | 6.286 | 491 nM
Cc1cccc(CN2CCC(Cc3ccccc3F)CC2)n1 | 6.094 | 776 nM
O=C(O)C(F)(F)F.c1ccc(N2CCCC3(CCN(Cc4ccsc4)C3)C2)nc1 (stereo not given) | 6.157 | 842 nM
CCc1ccc2nc(NCCCN(CCO)CCO)cc(C)c2c1 | 6.107 | 809 nM
O=C(C(CNCc1ccsc1)c1ccccc1)N1CCOCC1 (stereo not given) | 6.002 | 1450 nM

— ChEMBL document CHEMBL3988442, “University of Dundee, Small-Polar-MMV Screening Library” (2021)
